In ChEMBL document CHEMBL3603838, “Guanidinium compounds with sub-micromolar activities against Mycobacterium tuberculosis. Synthesis, characterization and biological evaluations” (Bioorg Med Chem, 2015):
Converted amounts (≈) assume the structure as drawn.

Legend:
[1] = tested on: Mycobacterium tuberculosis; assay: Antimycobacterial activity against Mycobacterium tuberculosis H37Rv after 6 days by MTT assay; format: functional, organism-based; conditions: 144 h
[2] = Cytotoxicity against human MRC5 cells after 24 hrs; format: cell-based
[3] = Selectivity index, ratio of CC50 for human MRC5 cells to MIC for Mycobacterium tuberculosis H37Rv; format: toxicity, cell-based; conditions: read-out: Selectivity Index

Row | SMILES | IC50 [1] | MIC [1] | CC50 at 24 h [2] | selectivity ratio [3]
1 | NNC(=O)c1ccncc1 [ISONIAZID] | 220 nM | 0.6 µM (≈ 0.0823 µg/mL) | > 10 µg/mL | > 125
2 | N=C(N)NCCc1ccc(OCc2cccc(COc3ccc(CCNC(=N)N)cc3)c2)cc1.O=C(O)C(F)(F)F | 700 nM | 3.1 µM | 34.5 µg/mL | 16
3 | CN[C@@H]1[C@H](O[C@H]2[C@H](O[C@H]3[C@H](O)[C@@H](O)[C@H](N=C(N)N)[C@@H](O)[C@@H]3N=C(N)N)O[C@@H](C)[C@]2(O)C=O)O[C@@H](CO)[C@H](O)[C@H]1O [STREPTOMYCIN] | – | 0.7 µM (≈ 0.407 µg/mL) | – | –
4 | N=C(N)NCCc1ccc(OCc2cc(COc3ccc(CCNC(=N)N)cc3)cc(COc3ccc(CCNC(=N)N)cc3)c2)cc1.O=C(O)C(F)(F)F | 350 nM | 0.8 µM | 39.5 µg/mL | 49
5 | N=C(N)NCCc1ccc(OCc2ccccc2COc2ccc(CCNC(=N)N)cc2)cc1.O=C(O)C(F)(F)F | 1500 nM | 6.2 µM | 100 µg/mL | 24
6 | N=C(N)NCCc1ccc(OCc2ccc(COc3ccc(CCNC(=N)N)cc3)cc2)cc1.O=C(O)C(F)(F)F | 800 nM | 3.1 µM | 21 µg/mL | 10
7 | N=C(N)NCCc1ccc(OCc2cc(COc3ccc(CCNC(=N)N)cc3)c(COc3ccc(CCNC(=N)N)cc3)cc2COc2ccc(CCNC(=N)N)cc2)cc1.O=C(O)C(F)(F)F | 500 nM | 3.2 µM | 49 µg/mL | 11.5
8 | CC[C@@H](CO)NCCN[C@@H](CC)CO [ETHAMBUTOL] | – | 9.8 µM (≈ 2 µg/mL) | > 10 µg/mL | > 5
9 | N=C(N)NCCc1ccc(OCc2ccccc2)cc1 | 5900 nM | 25 µM (≈ 6.73 µg/mL) | 26 µg/mL (≈ 96.5 µM) | 2.6
10 | N=C(N)NCCc1cc2c(O)c(c1)Cc1cc(CCNC(=N)N)cc(c1O)Cc1cc(CCNC(=N)N)cc(c1O)Cc1cc(CCNC(=N)N)cc(c1O)C2 | – | 0.8 µM (≈ 0.612 µg/mL) | > 256 µg/mL | > 256
11 | O=C(O)c1cn(C2CC2)c2cc(N3CCNCC3)c(F)cc2c1=O [CIPROFLOXACIN] | 600 nM | 2.5 µM (≈ 0.828 µg/mL) | – | –
12 | N=C(N)NCCc1ccc(OCc2c(COc3ccc(CCNC(=N)N)cc3)c(COc3ccc(CCNC(=N)N)cc3)c(COc3ccc(CCNC(=N)N)cc3)c(COc3ccc(CCNC(=N)N)cc3)c2COc2ccc(CCNC(=N)N)cc2)cc1 | 3800 nM | 12.5 µM (≈ 15.3 µg/mL) | 26 µg/mL (≈ 21.2 µM) | 1
